The test system of one series is serum HDL cholesterol. Briefly: HDL cholesterol determination in cholesterol/cholic acid-fed rats. The series is classed as in vivo, Male Sprague-Dawley rats. The following applies: Rattus norvegicus, feed or water, 192 h, 8 days, rats fed chow with 0.25% cholic acid and 1.0% cholesterol, FPLC, read-out: HDL Cholesterol Level Increase (%); for change in vivo at 100 mg/kg/day: dose 100 mg/kg/day in diet. How it is done:
The ability of the compounds of this invention to increase blood serum HDL levels was established by the following standard experimental procedure for determination of HDL cholesterol:
Male Sprague-Dawley rats weighing 200-225 g were housed two per cage and fed Purina Rodent Chow Special Mix 5001-S supplemented with 0.25% cholic acid and 1.0% cholesterol and water ad libitum for 8 days. Each test substance is administered to a group of six rats fed the same diet with the test diet mixed in as 0.005-0.1% of the total diet. Body weight and food consumption were recorded prior to diet administration and at termination. Typical doses of the test substances were 5-100 mg/kg/day.
At termination, blood was collected from anesthetized rats and the serum was separated by centrifugation. Total serum cholesterol was assayed using the Sigma Diagnostics enzymatic kit for the determination of cholesterol, Procedure No. 352, modified for use with ninety-six well microtiter plates. After reconstitution with water the reagent contains 300 U/I cholesterol oxidase, 100 U/I cholesterol esterase, 1000 U/I horse radish peroxidase, 0.3 mmoles/l 4-aminoantipyrine and 30.0 mmoles/l p-hydroxybenzenesulfonate in a pH 6.5 buffer. In the reaction cholesterol was oxidized to produce hydrogen peroxide which was used to form a quinoneimine dye. The concentration of dye formed was measured spectrophotometrically by absorbence at 490 nm after incubation at 25° C. for 30 minutes. The concentration of cholesterol was determined for each serum sample relative to a commercial standard from Sigma.
HDL cholesterol concentrations in serum are determined by separation of lipoprotein classes by fast protein liquid chromatography (FPLC) by a modification of the method of Kieft et al., J. Lipid Res., 32 (1991) 859-866. 25 ul of serum was injected onto Superose 12 and Superose 6 (Pharmacia), in series, with a column buffer of 0.05 M Tris (2-amino-2-hydroxymethyl-1,3-propanediol) and 0.15 M sodium chloride at a flow rate of 0.5 ml/min. The eluted sample was mixed on line with Boehringer-Mannheim cholesterol reagent pumped at 0.2 ml/min. The combined eluents are mixed and incubated on line through a knitted coil (Applied Biosciences) maintained at a temperature of 45C. The eluent was monitored by measuring absorbence at 490 nm and gives a continuous absorbence signal proportional to the cholesterol concentration. The relative concentration of each lipoprotein class was calculated as the percent of total absorbence. HDL cholesterol concentration, in serum, was calculated as the percent of total cholesterol as determined by FPLC multiplied by the total serum cholesterol concentration.
Test compounds were administered at the specified dose. Each test substance was administered to a group of six rats. The duration of treatment was eight days.

A word on the melting point: it is the temperature, or range, at which the solid turns liquid. In turn, `Cc1cccc(Cl)c1N1C(=O)CON(C)C1=S` [Example 7, 4-(2-Chloro-6-methylphenyl)-2-methyl-3-thioxo-[1,2,4]oxadiazinan-5-one] showed a melting point of 176 to 178 °C. In the series with serum HDL cholesterol, the change in vivo at 100 mg/kg/day is 100%.
`COc1ccc(Cl)cc1N1C(=O)CON(C)C1=S` [Example 11, 4-(5-Chloro-2-methoxyphenyl)-2-methyl-3-thioxo-[1,2,4]oxadiazinan-5-one] displayed a melting point of 189 to 191 °C. The change in vivo at 100 mg/kg/day in the series with serum HDL cholesterol amounted to 78%.
`Cc1cc(Cl)ccc1N1C(=O)CON(C)C1=S` [Example 1, 4-(4-Chloro-2-methylphenyl)-2-methyl-3-thioxo-[1,2,4]oxadiazinan-5-one] displayed a melting point of 141 to 143 °C. The change in vivo at 100 mg/kg/day in the series with serum HDL cholesterol came to 221%.
`CN1OCC(=O)N(c2ccc3c(c2)CCC3)C1=S` [Example 5, 4-Indan-5-yl-2-methyl-3-thioxo-[1,2,4]oxadiazinan-5-one] returned a melting point of 135 to 137 °C. Further, in the series on serum HDL cholesterol, the change in vivo at 100 mg/kg/day worked out at 192%.
On to `CCN1OCC(=O)N(c2cc(Cl)ccc2C)C1=S` [Example 4, 4-(5-Chloro-2-methylphenyl)-2-ethyl-3-thioxo-[1,2,4]oxadiazinan-5-one], for which the melting point lay in the range of 119 to 121 °C. The change in vivo at 85 mg/kg/day in the series on serum HDL cholesterol (dose 85 mg/kg/day in diet) amounted to 136%.
In turn, `Cc1ccc(Cl)cc1N1C(=O)CON(C)C1=S` [Example 3, 4-(5-Chloro-2-methylphenyl)-2-methyl-3-thioxo-[1,2,4]oxadiazinan-5-one] showed a melting point of 100 to 102 °C. For the same compound, the change in vivo at 100 mg/kg/day in the series on serum HDL cholesterol was found to be 236%.
For the compound `CN1OCC(=O)N(c2ccc(Oc3ccccc3)cc2)C1=S` [Example 10, 4-(4-Phenoxyphenyl)-2-methyl-3-thioxo-[1,2,4]oxadiazinan-5-one], the melting point was 159 to 160 °C. Moreover, the change in vivo at 100 mg/kg/day in the series with serum HDL cholesterol was found to be 102%.
The matching figures for `CN1OCC(=O)N(c2ccc(C(C)(C)C)cc2)C1=S` [Example 9, 4-(4-tert-Butylphenyl)-2-methyl-3-thioxo-[1,2,4]oxadiazinan-5-one]: 168 to 170 °C and 170%.
In turn, `Cc1ccc(C)c(N2C(=O)CON(C)C2=S)c1` [Example 6, 4-(2,5-Dimethylphenyl)-2-methyl-3-thioxo-[1,2,4]oxadiazinan-5-one] had a melting point of 104 to 106 °C. Also, in the series on serum HDL cholesterol, the change in vivo at 100 mg/kg/day was 72%.
The compound `CN1OCC(=O)N(C(c2ccccc2)c2ccccc2)C1=S` [Example 2, 4-Benzhydryl-2-methyl-3-thioxo-[1,2,4]oxadiazinan-5-one] came in with a melting point of 152 to 154 °C. The change in vivo at 100 mg/kg/day in the series with serum HDL cholesterol worked out at 60%.
`CC(C)c1ccccc1N1C(=O)CON(C)C1=S` [Example 8, 4-(2-Isopropylphenyl)-2-methyl-3-thioxo-[1,2,4]oxadiazinan-5-one] returned a melting point of 98 to 101 °C. Also, the change in vivo at 100 mg/kg/day in the series with serum HDL cholesterol turned out to be 95%.

These data come from patent US6562814B2, “3-thioxo-[1,2,4]-oxadiazinan-5-one derivatives” (Wyeth, priority 2000, dated 2003).
